Data as given in US20250339569A1, “CARBONIC ANHYDRASE IX LIGANDS” (priority 2021, published 2025).
Starred links: 1 amine or outer side, 2 acyl side, 3 side chain; linkers in the order of their positions; H or OH if unused. Positions of bridges follow the written chain, without caps; N, C: chain ends. Non-standard residues stand in square brackets, D forms with d. Residues, ends and D or L forms follow the SMILES beside them. No end group written: not given here. *: point of attachment. DOTA = O=C(O)CN1CCN(CC(=O)O)CCN(CC(=O)*)CCN(CC(=O)O)CC1; NGly(3-aminopropyl) = O=C(CN(CCCN[*:3])[*:1])[*:2]; mXylylene = c1cc(C[*:1])cc(C[*:2])c1; Pen = CC(C)(S)[C@H](N)C(=O)O; APAc = not defined here; Aib = CC(C)(N)C(=O)O; Sar = CNCC(=O)O

target: T1, CAIX-expressing human HT-29 colorectal cancer cells (Homo sapiens, UniProt Q16790); assay: FACS binding assay (IC50 determination, competition with tracer 3BP-2776 or 3BP-4149); settings: FACS binding assay, HT-29 cells, competition with tracer 3BP-2776 (10 nM, biotin-labeled), 4° C., 1 hour
T1 construct: CAIX-expressing human HT-29 colorectal cancer cells; host or cells: HT-29 human colorectal cancer cells
Protocol: In order to determine binding of compounds according to the present invention to CAIX-expressing cells, a FACS binding assay was established.
CAIX-expressing human HT-29 colorectal cancer cells (DSMZ, RRID: CVCL_0320) were cultured in McCoys's 5A modified medium (Biochrom, #F1015) including 10% fetal calf serum (FCS), 2 mM L-glutamine, 100 U/ml penicillin and 100 μg/mL streptomycin. Cells were detached with Accutase (Biolegend, #423201) and washed in FACS buffer (PBS including 1% FCS). Cells were diluted in FACS buffer to a final concentration of 500.000 cells per ml. 200 μL of the cell suspension were transferred to a u-shaped non-binding 96-well plate (Greiner) and cells were washed in ice-cold FACS buffer.
When biotinylated compounds were used an additional incubation step with 1 μg/mL APC-Streptavidin (Miltenyi; #130-106-791) in 50 μL FACS buffer for 30 minutes on ice was performed.
Cells were washed twice with ice-cold FACS buffer and analyzed in an Attune NxT flow cytometer (Thermo Fisher). Median fluorescence intensities (MFI) of the APC/Cy5-channel were calculated by Attune NxT software. MFI values were plotted against peptide concentration and four parameter logistic (4PL) curve fitting and EC50/pEC50 or IC50/pIC50 calculations were performed using ActivityBase software.

Compound | pIC50 category (activity)
3BP-4178 ([dP]PVYCE[dP]DWLTWSC; linker 5-14 via mXylylene; not fully specified (bridges)) | A (pIC50 values >8.0)
3BP-4252 ({DOTA-APAc}-VYCEG[NGly(3-aminopropyl)]WLEWSC-NH2; linker 3-12 via mXylylene; lactam 6-9; reading uncertain) | B (pIC50 values between 7.1 and 8.0)

same assay, conditions: FACS competition on HT-29 cells, Tracer ID 3BP-2776 (10 nM, biotin-labeled), 4° C., 1 hour; read-out: pIC50 category (activity) (converted)

Compound | IC50
CC(=O)N[C@@H](C(=O)N[C@@H](Cc1ccc(O)cc1)C(=O)N[C@H]1CSCc2cccc(c2)CSC[C@@H](C(N)=O)NC(=O)[C@H](CCC(N)=O)NC(=O)[C@H](Cc2c[nH]c3ccccc23)NC(=O)[C@H]([C@@H](C)O)NC(=O)[C@H](CC(C)C)NC(=O)[C@H](Cc2c[nH]c3ccccc23)NC(=O)[C@H](CC(=O)O)NC(=O)CNC(=O)[C@H](CCC(=O)O)NC1=O)C(C)C [3BP-3043] (Ac-[dV]YCEGDWLTWQC-NH2; linker 3-12 via mXylylene) | 10 to 79.4 nM
CC(=O)N[C@H](C(=O)N[C@H](Cc1ccc(O)cc1)C(=O)N[C@H]1CSCc2cccc(c2)CSC[C@@H](C(N)=O)NC(=O)[C@H](CCC(N)=O)NC(=O)[C@H](Cc2c[nH]c3ccccc23)NC(=O)[C@H]([C@@H](C)O)NC(=O)[C@H](CC(C)C)NC(=O)[C@H](Cc2c[nH]c3ccccc23)NC(=O)[C@H](CC(=O)O)NC(=O)CNC(=O)[C@H](CCC(=O)O)NC1=O)C(C)C [3BP-3044] (Ac-V[dY]CEGDWLTWQC-NH2; linker 3-12 via mXylylene) | 100 to 794 nM
CC(=O)N[C@H](C(=O)N[C@@H](Cc1ccc(O)cc1)C(=O)N[C@H]1CSCc2cccc(c2)CSC[C@@H](C(N)=O)NC(=O)[C@H](CCC(N)=O)NC(=O)[C@H](Cc2c[nH]c3ccccc23)NC(=O)[C@H]([C@@H](C)O)NC(=O)[C@H](CC(C)C)NC(=O)[C@H](Cc2c[nH]c3ccccc23)NC(=O)[C@H](CC(=O)O)NC(=O)[C@@H](C)NC(=O)[C@H](CCC(=O)O)NC1=O)C(C)C [3BP-3046] (Ac-VYCE[dA]DWLTWQC-NH2; linker 3-12 via mXylylene) | < 10 nM
CC(=O)N[C@H](C(=O)N[C@@H](Cc1ccc(O)cc1)C(=O)N[C@H]1CSCc2cccc(c2)CSC[C@@H](C(N)=O)NC(=O)[C@H](CCC(N)=O)NC(=O)[C@H](Cc2c[nH]c3ccccc23)NC(=O)[C@H]([C@@H](C)O)NC(=O)[C@H](CC(C)C)NC(=O)[C@H](Cc2c[nH]c3ccccc23)NC(=O)[C@H](CC(=O)O)NC(=O)CNC(=O)[C@H](C)NC1=O)C(C)C [3BP-3052] (Ac-VYCAGDWLTWQC-NH2; linker 3-12 via mXylylene) | < 10 nM
CC(=O)N[C@H](C(=O)N[C@@H](Cc1ccc(O)cc1)C(=O)N[C@H]1CSCc2cccc(c2)CSC[C@@H](C(N)=O)NC(=O)[C@H](CCC(N)=O)NC(=O)[C@H](Cc2c[nH]c3ccccc23)NC(=O)[C@H]([C@@H](C)O)NC(=O)[C@H](CC(C)C)NC(=O)[C@H](Cc2c[nH]c3ccccc23)NC(=O)[C@H](C)NC(=O)CNC(=O)[C@H](CCC(=O)O)NC1=O)C(C)C [3BP-3053] (Ac-VYCEGAWLTWQC-NH2; linker 3-12 via mXylylene) | 10 to 79.4 nM
CC(=O)N[C@H](C(=O)N[C@@H](Cc1ccc(O)cc1)C(=O)N[C@H]1CSCc2cccc(c2)CSC[C@@H](C(N)=O)NC(=O)[C@H](CCC(N)=O)NC(=O)[C@H](Cc2c[nH]c3ccccc23)NC(=O)[C@H]([C@@H](C)O)NC(=O)[C@H](C)NC(=O)[C@H](Cc2c[nH]c3ccccc23)NC(=O)[C@H](CC(=O)O)NC(=O)CNC(=O)[C@H](CCC(=O)O)NC1=O)C(C)C [3BP-3055] (Ac-VYCEGDWATWQC-NH2; linker 3-12 via mXylylene) | 100 to 794 nM
CC(=O)N[C@H](C(=O)N[C@@H](Cc1ccc(O)cc1)C(=O)N[C@H]1CSCc2cccc(c2)CSC[C@@H](C(N)=O)NC(=O)[C@H](CCC(N)=O)NC(=O)[C@H](Cc2c[nH]c3ccccc23)NC(=O)[C@H]([C@@H](C)O)NC(=O)[C@H](CC(C)C)NC(=O)[C@H](Cc2c[nH]c3ccccc23)NC(=O)[C@H](CC(=O)O)NC(=O)CN(C)C(=O)[C@H](CCC(=O)O)NC1=O)C(C)C [3BP-3060] (Ac-VYCE[Sar]DWLTWQC-NH2; linker 3-12 via mXylylene) | < 10 nM
CC(=O)N[C@H](C(=O)N[C@@H](Cc1ccc(O)cc1)C(=O)N[C@H]1CSCc2cccc(c2)CSC[C@@H](C(N)=O)NC(=O)[C@H](CCC(N)=O)NC(=O)[C@H](Cc2c[nH]c3ccccc23)NC(=O)[C@H]([C@@H](C)O)NC(=O)[C@H](CC(C)C)NC(=O)[C@H](Cc2c[nH]c3ccccc23)NC(=O)C(C)(C)NC(=O)CNC(=O)[C@H](CCC(=O)O)NC1=O)C(C)C [3BP-3061] (Ac-VYCEG[Aib]WLTWQC-NH2; linker 3-12 via mXylylene) | 100 to 794 nM
CC(=O)N[C@H](C(=O)N[C@@H](Cc1ccc(O)cc1)C(=O)N[C@@H]1C(=O)N[C@@H](CCC(=O)O)C(=O)NCC(=O)N[C@@H](CC(=O)O)C(=O)N[C@@H](Cc2c[nH]c3ccccc23)C(=O)N[C@@H](CC(C)C)C(=O)N[C@@H]([C@@H](C)O)C(=O)N[C@@H](Cc2c[nH]c3ccccc23)C(=O)N[C@@H](CCC(N)=O)C(=O)N[C@H](C(N)=O)CSCc2cccc(c2)CSC1(C)C)C(C)C [3BP-3063] (Ac-VY[Pen]EGDWLTWQC-NH2; linker 3-12 via mXylylene) | 10 to 79.4 nM

The remaining lines, values ahead:

IC50 | Compound
100 to 794 nM | CSCC[C@H](NC(C)=O)C(=O)N[C@H](C(=O)N[C@@H](Cc1ccc(O)cc1)C(=O)N[C@H]1CSCc2cccc(c2)CSC[C@@H](C(N)=O)NC(=O)[C@H](CCC(N)=O)NC(=O)[C@H](Cc2c[nH]c3ccccc23)NC(=O)[C@H]([C@@H](C)O)NC(=O)[C@H](CC(C)C)NC(=O)[C@H](Cc2c[nH]c3ccccc23)NC(=O)[C@H](CC(=O)O)NC(=O)CNC(=O)[C@H](CCC(=O)O)NC1=O)C(C)C [3BP-2836] (Ac-MVYCEGDWLTWQC-NH2; linker 4-13 via mXylylene)
100 to 794 nM | CC(=O)N[C@H](C(=O)N[C@@H](Cc1ccc(O)cc1)C(=O)N[C@H]1CSCc2cccc(c2)CSC[C@@H](C(N)=O)NC(=O)[C@H](CCC(N)=O)NC(=O)[C@H](Cc2c[nH]c3ccccc23)NC(=O)[C@H]([C@@H](C)O)NC(=O)[C@H](CC(C)C)NC(=O)[C@H](Cc2c[nH]c3ccccc23)NC(=O)[C@H](CC(=O)O)NC(=O)CNC(=O)[C@@H](CCC(=O)O)NC1=O)C(C)C [3BP-3045] (Ac-VYC[dE]GDWLTWQC-NH2; linker 3-12 via mXylylene)
100 to 794 nM | CC(=O)N[C@H](C(=O)N[C@@H](Cc1ccc(O)cc1)C(=O)N[C@H]1CSCc2cccc(c2)CSC[C@@H](C(N)=O)NC(=O)[C@H](CCC(N)=O)NC(=O)[C@H](Cc2c[nH]c3ccccc23)NC(=O)[C@H]([C@@H](C)O)NC(=O)[C@H](CC(C)C)NC(=O)[C@H](Cc2c[nH]c3ccccc23)NC(=O)[C@@H](CC(=O)O)NC(=O)CNC(=O)[C@H](CCC(=O)O)NC1=O)C(C)C [3BP-3047] (Ac-VYCEG[dD]WLTWQC-NH2; linker 3-12 via mXylylene)
100 to 794 nM | CC(=O)N[C@H](C(=O)N[C@@H](Cc1ccc(O)cc1)C(=O)N[C@H]1CSCc2cccc(c2)CSC[C@@H](C(N)=O)NC(=O)[C@H](CCC(N)=O)NC(=O)[C@H](Cc2c[nH]c3ccccc23)NC(=O)[C@H]([C@@H](C)O)NC(=O)[C@@H](CC(C)C)NC(=O)[C@H](Cc2c[nH]c3ccccc23)NC(=O)[C@H](CC(=O)O)NC(=O)CNC(=O)[C@H](CCC(=O)O)NC1=O)C(C)C [3BP-3048] (Ac-VYCEGDW[dL]TWQC-NH2; linker 3-12 via mXylylene)
100 to 794 nM | CC(=O)N[C@H](C(=O)N[C@@H](Cc1ccc(O)cc1)C(=O)N[C@H]1CSCc2cccc(c2)CSC[C@@H](C(N)=O)NC(=O)[C@H](CCC(N)=O)NC(=O)[C@H](Cc2c[nH]c3ccccc23)NC(=O)[C@@H]([C@H](C)O)NC(=O)[C@H](CC(C)C)NC(=O)[C@H](Cc2c[nH]c3ccccc23)NC(=O)[C@H](CC(=O)O)NC(=O)CNC(=O)[C@H](CCC(=O)O)NC1=O)C(C)C [3BP-3049] (Ac-VYCEGDWL[dT]WQC-NH2; linker 3-12 via mXylylene)
10 to 79.4 nM | CC(=O)N[C@H](C(=O)N[C@@H](Cc1ccc(O)cc1)C(=O)N[C@H]1CSCc2cccc(c2)CSC[C@@H](C(N)=O)NC(=O)[C@H](CCC(N)=O)NC(=O)[C@H](Cc2c[nH]c3ccccc23)NC(=O)[C@H](C)NC(=O)[C@H](CC(C)C)NC(=O)[C@H](Cc2c[nH]c3ccccc23)NC(=O)[C@H](CC(=O)O)NC(=O)CNC(=O)[C@H](CCC(=O)O)NC1=O)C(C)C [3BP-3056] (Ac-VYCEGDWLAWQC-NH2; linker 3-12 via mXylylene)
< 10 nM | CC(=O)N[C@H](C(=O)N[C@@H](Cc1ccc(O)cc1)C(=O)N[C@H]1CSCc2cccc(c2)CSC[C@@H](C(N)=O)NC(=O)[C@H](CCC(N)=O)NC(=O)[C@H](Cc2c[nH]c3ccccc23)NC(=O)[C@H]([C@@H](C)O)NC(=O)[C@H](CC(C)C)NC(=O)[C@H](Cc2c[nH]c3ccccc23)NC(=O)[C@H](CC(=O)O)NC(=O)C(C)(C)NC(=O)[C@H](CCC(=O)O)NC1=O)C(C)C [3BP-3059] (Ac-VYCE[Aib]DWLTWQC-NH2; linker 3-12 via mXylylene)
